Source: the NIST ThermoML archive (doi:10.1016/j.jct.2018.12.016)
Numbers after ± are expanded uncertainties.

Conditions: 298.15 K, Liquid; for mass density: 101.33 kPa, Pycnometric method; for vapor or sublimation pressure: Manometric method

Structure (SMILES)	mass density [kg/m3]	vapor or sublimation pressure [kPa]
[Hg] [mercury]	13530 ± 30	
CC#N [acetonitrile]	776 ± 2	11.81 ± 0.16
COC(=O)OC [dimethyl carbonate]	1063 ± 2	7.256 ± 0.12
C[S+](C)[O-] [dimethyl sulfoxide]	1096 ± 3	0.08 ± 0.078
CCCCOC(=O)c1ccccc1C(=O)OCCCC [dibutyl phthalate]	1042 ± 2	
